The numbers were not newly measured in patent US7635572B2, “Methods for conducting assays for enzyme activity on protein microarrays” (Life Technologies Corporation, priority 2004, dated 2009), which cites them from elsewhere.

The data set concerns 39 kinases (Table 4). As to conditions: known general specificities of the inhibitors, Table 3; cited from earlier work.

Take `Oc1ccc(-c2nc(-c3ccncc3)c(-c3ccc(F)cc3)[nH]2)cc1` [SB 202190]: the “General Specificity (known)” value is “serine/threonine”.
